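Step 1: Grow cells in 96-well plates. Step 2: Expose to compound for 48 hours at 5 concentrations. Step 3: Interpolate endpoints linearly; if unreached, use highest concentration. Here, GI50 denotes the concentration required for 50% inhibition of growth.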 Activity calls are given as the source filed them. No stated cut-off is given here; in the data, active = GI50 up to about 1.1 µM and inactive = higher.
Legend:
Test in all cases: growth of human tumour cells (NCI), 48 h
HL-60 = system: HL-60
OVCAR-5 = system: OVCAR-5
MDA-MB-435 = system: MDA-MB-435
T47D = system: T47D
EKVX = system: EKVX
BT-549 = system: BT-549
SK-MEL-2 = system: SK-MEL-2
NCI-H226 = system: NCI-H226
SNB-19 = system: SNB-19
COLO 205 = system: COLO 205
Hs-578T = system: Hs-578T
CCRF-CEM = system: CCRF-CEM
HCT-116 = system: HCT-116
MDA-MB-231 = system: MDA-MB-231
HOP-62 = system: HOP-62
786-0 = system: 786-0
RPMI-8226 = system: RPMI-8226
UACC-62 = system: UACC-62
HOP-92 = system: HOP-92

CCOC(=O)C(NC(=O)OCc1ccccc1)C(=O)O (stereo not given)
GI50 (HL-60): > 100 µM (inactive) | GI50 (OVCAR-5): > 100 µM (inactive) | GI50 (MDA-MB-435): > 100 µM (inactive) | GI50 (T47D): > 100 µM (inactive) | GI50 (EKVX): > 100 µM (inactive) | GI50 (BT-549): > 100 µM (inactive) | GI50 (SK-MEL-2): > 100 µM (inactive) | GI50 (NCI-H226): > 100 µM (inactive) | GI50 (SNB-19): > 100 µM (inactive) | GI50 (COLO 205): > 100 µM (inactive) | GI50 (Hs-578T): > 100 µM (inactive) | GI50 (CCRF-CEM): > 100 µM (inactive) | GI50 (HCT-116): > 100 µM (inactive) | GI50 (MDA-MB-231): > 100 µM (inactive) | GI50 (HOP-62): > 100 µM (inactive) | GI50 (786-0): > 100 µM (inactive) | GI50 (RPMI-8226): > 100 µM (inactive) | GI50 (UACC-62): > 100 µM (inactive) | GI50 (HOP-92): > 100 µM (inactive)

COc1ccc(C(OCC2OC(n3cc(C)c(=O)[nH]c3=O)CC2n2cc(Cn3cc(Cl)c(=O)[nH]c3=O)nn2)(c2ccccc2)c2ccccc2)cc1 (stereo not given)
GI50 (HL-60): 3 µM (inactive) | GI50 (OVCAR-5): > 100 µM (inactive) | GI50 (MDA-MB-435): 7.18 µM (inactive) | GI50 (T47D): > 100 µM (inactive) | GI50 (EKVX): > 100 µM (inactive) | GI50 (BT-549): 82.6 µM (inactive) | GI50 (SK-MEL-2): > 100 µM (inactive) | GI50 (NCI-H226): > 100 µM (inactive) | GI50 (SNB-19): > 100 µM (inactive) | GI50 (COLO 205): > 100 µM (inactive) | GI50 (Hs-578T): 65 µM (inactive) | GI50 (CCRF-CEM): 2.95 µM (inactive) | GI50 (HCT-116): 33.9 µM (inactive) | GI50 (MDA-MB-231): 27.6 µM (inactive) | GI50 (HOP-62): > 100 µM (inactive) | GI50 (786-0): > 100 µM (inactive) | GI50 (RPMI-8226): 4.31 µM (inactive) | GI50 (UACC-62): 38 µM (inactive) | GI50 (HOP-92): 28.8 µM (inactive)

O=C(O)c1ccc(NC(c2ccccc2)c2ccc3cccnc3c2O)cc1 (stereo not given)
GI50 (HL-60): 2.65 µM (inactive) | GI50 (OVCAR-5): 16.8 µM (inactive) | GI50 (MDA-MB-435): 16.3 µM (inactive) | GI50 (T47D): 10.9 µM (inactive) | GI50 (EKVX): 7.85 µM (inactive) | GI50 (BT-549): 10 µM (inactive) | GI50 (SK-MEL-2): 26.1 µM (inactive) | GI50 (NCI-H226): 3.88 µM (inactive) | GI50 (SNB-19): 6.7 µM (inactive) | GI50 (COLO 205): 9.84 µM (inactive) | GI50 (Hs-578T): 28.5 µM (inactive) | GI50 (CCRF-CEM): 1.72 µM (inactive) | GI50 (HCT-116): 3.67 µM (inactive) | GI50 (MDA-MB-231): 10.8 µM (inactive) | GI50 (HOP-62): 6.15 µM (inactive) | GI50 (786-0): 6.04 µM (inactive) | GI50 (RPMI-8226): 4.38 µM (inactive) | GI50 (UACC-62): 6.58 µM (inactive) | GI50 (HOP-92): 20.2 µM (inactive)

COC1CC(N)(c2ccccc2)C(O)C(C)O1 (stereo not given)
GI50 (HL-60): > 100 µM (inactive) | GI50 (OVCAR-5): > 100 µM (inactive) | GI50 (MDA-MB-435): > 100 µM (inactive) | GI50 (T47D): > 100 µM (inactive) | GI50 (EKVX): > 100 µM (inactive) | GI50 (BT-549): > 100 µM (inactive) | GI50 (SK-MEL-2): > 100 µM (inactive) | GI50 (NCI-H226): > 100 µM (inactive) | GI50 (SNB-19): > 100 µM (inactive) | GI50 (COLO 205): > 100 µM (inactive) | GI50 (Hs-578T): > 100 µM (inactive) | GI50 (CCRF-CEM): > 100 µM (inactive) | GI50 (HCT-116): > 100 µM (inactive) | GI50 (MDA-MB-231): > 100 µM (inactive) | GI50 (HOP-62): > 100 µM (inactive) | GI50 (786-0): > 100 µM (inactive) | GI50 (RPMI-8226): > 100 µM (inactive) | GI50 (UACC-62): > 100 µM (inactive) | GI50 (HOP-92): > 100 µM (inactive)

Cc1ccc2c(c1)c1ccc3c(c1n2C)C(=O)C=CC3=O
GI50 (HL-60): 0.75 µM (active) | GI50 (OVCAR-5): > 10 µM (inactive) | GI50 (MDA-MB-435): 2.35 µM (inactive) | GI50 (T47D): 1.63 µM (inactive) | GI50 (EKVX): > 4.85 µM (inactive) | GI50 (BT-549): 1.36 µM (inactive) | GI50 (SK-MEL-2): 7.48 µM (inactive) | GI50 (NCI-H226): > 6.85 µM (inactive) | GI50 (SNB-19): > 10 µM (inactive) | GI50 (COLO 205): 1.26 µM (inactive) | GI50 (Hs-578T): 3.08 µM (inactive) | GI50 (CCRF-CEM): 0.284 µM (active) | GI50 (HCT-116): 1.51 µM (inactive) | GI50 (MDA-MB-231): 2.36 µM (inactive) | GI50 (HOP-62): > 10 µM (inactive) | GI50 (786-0): 1.95 µM (inactive) | GI50 (RPMI-8226): 1.23 µM (inactive) | GI50 (UACC-62): 3.01 µM (inactive) | GI50 (HOP-92): 2.03 µM (inactive)

Cn1nc2ccc([N+](=O)[O-])c(Cn3nnc4ccccc43)c2n1
GI50 (HL-60): > 100 µM (inactive) | GI50 (OVCAR-5): > 100 µM (inactive) | GI50 (MDA-MB-435): 90.8 µM (inactive) | GI50 (T47D): > 100 µM (inactive) | GI50 (EKVX): 87.9 µM (inactive) | GI50 (BT-549): > 100 µM (inactive) | GI50 (SK-MEL-2): > 100 µM (inactive) | GI50 (NCI-H226): > 100 µM (inactive) | GI50 (SNB-19): > 100 µM (inactive) | GI50 (COLO 205): > 100 µM (inactive) | GI50 (Hs-578T): 93.1 µM (inactive) | GI50 (CCRF-CEM): > 100 µM (inactive) | GI50 (HCT-116): > 100 µM (inactive) | GI50 (MDA-MB-231): > 100 µM (inactive) | GI50 (HOP-62): > 100 µM (inactive) | GI50 (786-0): > 100 µM (inactive) | GI50 (RPMI-8226): > 100 µM (inactive) | GI50 (UACC-62): > 100 µM (inactive) | GI50 (HOP-92): > 100 µM (inactive)

CO[C@H]1[C@@H](O)[C@@H](C)O[C@@H](O[C@H]2CC[C@@]3(C)[C@H](CC[C@@H]4[C@@H]3CC[C@]3(C)[C@@H](C5=CC(=O)OC5)[C@@H](OC(C)=O)C[C@]43O)C2)[C@@H]1O [NERITALOSIDE]
GI50 (HL-60): 0.0566 µM (active) | GI50 (OVCAR-5): 0.0914 µM (active) | GI50 (MDA-MB-435): 0.124 µM (active) | GI50 (T47D): 0.162 µM (active) | GI50 (EKVX): 0.0156 µM (active) | GI50 (BT-549): 0.0331 µM (active) | GI50 (SK-MEL-2): 0.129 µM (active) | GI50 (NCI-H226): 0.173 µM (active) | GI50 (SNB-19): 0.144 µM (active) | GI50 (COLO 205): 0.156 µM (active) | GI50 (Hs-578T): 0.0202 µM (active) | GI50 (CCRF-CEM): 0.029 µM (active) | GI50 (HCT-116): 0.0219 µM (active) | GI50 (MDA-MB-231): 0.198 µM (active) | GI50 (HOP-62): 0.0253 µM (active) | GI50 (786-0): 0.0176 µM (active) | GI50 (RPMI-8226): 0.17 µM (active) | GI50 (UACC-62): 0.1 µM (active) | GI50 (HOP-92): 0.149 µM (active)

Cc1cccc(O)c1-c1nnc(CCCCCCCCc2nnc(-c3c(C)cccc3O)n2N)n1N
GI50 (HL-60): 0.139 µM (active) | GI50 (OVCAR-5): > 100 µM (inactive) | GI50 (MDA-MB-435): > 69.5 µM (inactive) | GI50 (T47D): > 100 µM (inactive) | GI50 (EKVX): > 67.3 µM (inactive) | GI50 (BT-549): 15 µM (inactive) | GI50 (SK-MEL-2): 38.3 µM (inactive) | GI50 (NCI-H226): 55.7 µM (inactive) | GI50 (SNB-19): 41.2 µM (inactive) | GI50 (COLO 205): > 31.6 µM (inactive) | GI50 (Hs-578T): 39.9 µM (inactive) | GI50 (CCRF-CEM): 0.929 µM (active) | GI50 (HCT-116): 72.3 µM (inactive) | GI50 (MDA-MB-231): > 62.2 µM (inactive) | GI50 (HOP-62): 27.6 µM (inactive) | GI50 (786-0): 2.67 µM (inactive) | GI50 (RPMI-8226): > 100 µM (inactive) | GI50 (UACC-62): 66.7 µM (inactive) | GI50 (HOP-92): 18 µM (inactive)

C=CCOc1ccccc1/N=N/C(C#N)=N\Nc1ccccc1OCC=C
GI50 (HL-60): > 100 µM (inactive) | GI50 (OVCAR-5): > 100 µM (inactive) | GI50 (MDA-MB-435): 41.9 µM (inactive) | GI50 (T47D): > 100 µM (inactive) | GI50 (EKVX): > 100 µM (inactive) | GI50 (BT-549): > 100 µM (inactive) | GI50 (SK-MEL-2): > 100 µM (inactive) | GI50 (NCI-H226): > 100 µM (inactive) | GI50 (SNB-19): > 100 µM (inactive) | GI50 (COLO 205): > 100 µM (inactive) | GI50 (Hs-578T): > 100 µM (inactive) | GI50 (CCRF-CEM): > 100 µM (inactive) | GI50 (HCT-116): > 100 µM (inactive) | GI50 (MDA-MB-231): > 100 µM (inactive) | GI50 (HOP-62): > 100 µM (inactive) | GI50 (786-0): > 100 µM (inactive) | GI50 (RPMI-8226): > 100 µM (inactive) | GI50 (UACC-62): > 100 µM (inactive) | GI50 (HOP-92): 62.1 µM (inactive)

CC(C)CC(=O)OC[n+]1ccc(-c2c(COC(=O)NC(C)C)c(COC(=O)NC(C)C)c3n2CCC3)cc1
GI50 (HL-60): 65.8 µM (inactive) | GI50 (OVCAR-5): > 100 µM (inactive) | GI50 (MDA-MB-435): > 100 µM (inactive) | GI50 (T47D): > 100 µM (inactive) | GI50 (EKVX): > 100 µM (inactive) | GI50 (BT-549): > 100 µM (inactive) | GI50 (SK-MEL-2): > 100 µM (inactive) | GI50 (NCI-H226): > 100 µM (inactive) | GI50 (SNB-19): > 100 µM (inactive) | GI50 (COLO 205): > 100 µM (inactive) | GI50 (Hs-578T): > 100 µM (inactive) | GI50 (CCRF-CEM): 64.4 µM (inactive) | GI50 (HCT-116): > 100 µM (inactive) | GI50 (MDA-MB-231): > 100 µM (inactive) | GI50 (HOP-62): > 100 µM (inactive) | GI50 (786-0): > 100 µM (inactive) | GI50 (RPMI-8226): > 100 µM (inactive) | GI50 (UACC-62): 83.8 µM (inactive) | GI50 (HOP-92): > 100 µM (inactive)
